Patent publication US10479792B2, “Compounds” (GlaxoSmithKline Intellectual Property Development Limited, priority 2015, dated 2019)

Key:
Type in all cases: cell-based
[1] = system: THP-1 cells; experiment: Intramacrophage Leishmania donovani assay (Assay 1), THP-1 cell count (cytotoxicity readout); settings: human, 96 h incubation, read-out: cytotoxicity against THP-1 cells, pEC50 (converted)
Method: Assay 1. Intramacrophage Leishmania donovani Assay
The intramacrophage Leishmania assay was performed using a modified version of the method described in De Rycker et al. (Antimicrob Agents Chemother. 2013 July; 57(7):2913-22. Comparison of a high-throughput high-content intracellular Leishmania donovani assay with an axenic amastigote assay. De Rycker M, Hallyburton I, Thomas J, Campbell L, Wyllie S, Joshi D, Cameron S, Gilbert I H, Wyatt P G, Frearson J A, Fairlamb A H, Gray D W.). Procedure: 350 nl of compound was pre-dispensed into 384 well sterile intermediary plates. For single point screening, amphotericin B was added to all wells of column 24 as a positive control (final concentration 2 μM) and DMSO to column 23. For potency determinations, ten-point, one in three dilution curves were created with the highest concentration being 50 μM and on each plate a control curve of amphotericin B was included. Controls were as follows: columns 11 and 12: DMSO, columns 23 and 24: amphotericin B (final concentration 2 μM). To the intermediary plates, 35 μl of THP-1 media was added and plates were shaken for >5 min to ensure complete mixing. […] For each well, i) THP-1 cell count (cytotoxicity readout) and ii) average number of amastigotes per cell (potency readout) were calculated, both in terms of pEC50 values.

[2] = system: Trypanosoma cruzi; experiment: Trypanosoma cruzi intracellular assay (Assay 2); settings: infected H9C2 rat cardiomyocytes, 72 h incubation, read-out: pEC50 value against Trypanosoma cruzi (converted)
Method: (§1) Compounds were dispensed into black 384-well assay plates (Greiner) by acoustic dispensing (LabCyte ECHO). For potency determinations, eleven-point, one in three dilution curves were generated, with a top concentration of 50 μM. H9C2 rat cardiomyocytes cells were dispensed in T225 tissue culture flasks and after 4 hours they were infected during 18 hours with T. cruzi trypomastigotes in the same T225 tissue culture flasks at a multiplicity of infection of 1. Next, any remaining free trypomastigotes were washed away with PBS and the infected H9C2 cells were harvested by trypsinisation. The infected H9C2 cells were then plated into 384-well plates containing the compounds to be tested, at 2500 cells per well in DMEM media with 2% FBS, 1% Penicillin/Streptomicin, 2 mM L-Glutamine, 1 mM Na Pyruvate and 25 mM HEPES. After 72 h incubation at 37° C. in presence of 5% CO2, the plates were fixed and stained with 4% formaldehyde and 2 μM Draq5 for 3 hours at room temperature. The plates were imaged on a Perkin Elmer Opera high-content imaging system using a 20× air objective. Images were analyzed using the Acapella building blocks system (Perkin Elmer). The image analysis algorithm first identified the H9C2 nuclei followed by demarcation of the cytoplasm and identification of intracellular amastigotes. This algorithm reported mean number of parasites per H9C2 cell, the percentage of infected H9C2 cells and the total number of H9C2 cells.

[3] = system: RnH9c2 cells; experiment: Trypanosoma cruzi intracellular assay (Assay 2), host cell cytotoxicity; settings: rat, H9C2 cardiomyocytes infected with Trypanosoma cruzi, 72 h incubation, read-out: cytotoxicity against RnH9c2 cells, pEC50 (converted)
Method: as §1

Question: Which results are given for `O=C(Nc1ccc(F)c(-c2ccn3c(N4CCOCC4)cnc3n2)c1)N1CCCC1` [Example 4, N-(4-fluoro-3-(3-morpholinoimidazo[1,2-a]pyrimidin-7-yl)phenyl)pyrrolidine-1-carboxamide]?
Answer: EC50 at 96 h [1]: > 50.1 µM; EC50 [2]: 0.0398 µM; EC50 at 72 h [3]: > 50.1 µM
